# Patent publication US10502749B1, “Method for patient stratification and drug efficacy monitoring” (New York University, priority 2016, dated 2019)
# Tests used:
# [1] = test system: Ras, dynamin, Grin2B, and mGlur5; test: Western blot of candidate proteins in brains of FXS and WT littermates after chronic S6K1 inhibitor treatment; format: in vivo, mouse; settings: for Expression of candidate proteins (Ras, dynamin, Grin2B, mGlur5) in brain after treatment: FXS model mice, chronic treatment, 25 mg/kg i.p. daily for 10 days, western blot, 25 mg/kg
# Experimental: (§1) PF-4708671 was obtained from Sigma, Mo., USA. Littermate matched mice underwent 10 days of daily 25 mg/kg intraperitoneal injections of PF-4708671 in a vehicle consisting of saline +5% v/v of Tween-80 (Sigma). On day 10, 90 mins after the final injection mice were killed by cervical dislocation and the hippocampus was quickly dissected to yield whole hippocampal lysates. Simultaneously, trunk blood also was collected to monitor peripheral levels of proteins.
# Thus, the candidates correlate with improved behavior in the brain. We therefore evaluated if they could be measured and quantified in a peripheral tissue such as blood. Animals were treated as described above with PF-4708671, then animals were euthanized via cervical dislocation and brain tissue was collected on ice and snap frozen. Lysates were then prepared as previously described (Bhattacharya et al, 2016, incorporated herein by reference) and analyzed by western blot.
# Brain tissues were obtained immediately following euthanasia, snap frozen and homogenized in lysis buffer containing protease and phosphatase inhibitors. Lysates were then analyzed using Western blotting and the levels of specific candidates was determined using densitometry and comparing them to a known loading control such as actin, Gapdh or transferrin receptor.
# Ras = test: Concentration levels of mGluR and Ras in mouse trunk blood after 10 days of treatment; format: in vivo
# Experimental: as §1
# FXS or wild type mice were treated with an S6K1 inhibitor, PF-4708671 (S6Ki) for 10 days. Concentration levels of the two markers—mGluR and Ras in mouse trunk blood treated with vehicle or the S6Ki were determined. N=3 animals per treatment per genotype were used. Statistical analyses was done using two-way ANOVA (genotype×treatment). P=0.0079 for interaction and p=0.019 for FXS±S6Ki and p=0.16 for WT±S6Ki.
# FXS model mice [2] = settings: cited from earlier work
# FXS model mice [3] = settings: cited from earlier work; remark: listed apart in the source
# FXS model mice [4] = settings: cited from earlier work; remark: listed apart in the source
# FXS model mice [5] = settings: cited from earlier work; remark: listed apart in the source
compound,measurement,setting,value
CCc1cncnc1N1CCN(Cc2nc3ccc(C(F)(F)F)cc3[nH]2)CC1 [PF-4708671],Ras in the brain of FXS mice after S6K1 inhibitor,"[1]; FXS mice, brain, FIG. 3",does not change
same,"Expression of candidate proteins (Ras, dynamin, Grin2B, mGlur5) in brain after treatment",[1],rescues expression of 3 protein candidates in brain
same,"Expression of candidate proteins (Ras, dynamin, Grin2B, mGlur5) in brain after treatment",[1]; listed as S6K1 inhibitor,3 out of 4 are statistically improved
same,"Ras level in trunk blood, greater than WT veh","Ras; FXS mice, vehicle 10 days (printed as FXS+veh)",31%
same,"Ras level in trunk blood, average (+/-SD)","Ras; FXS mice, vehicle 10 days, N=3 (printed as FXS+veh)",1.19±0.21
same,"Candidate proteins (mGluR, Ras) in FXS model mouse blood rescued by treatment","Ras; FXS model mice, trunk blood, 10 days, listed as S6K1 inhibitor",one was rescued
same,"Ras level in trunk blood, less from WT veh","Ras; WT mice, S6Ki 10 days",32%
same,"Ras level in trunk blood, average (+/-SD)","Ras; WT mice, S6Ki 10 days, N=3",0.62±0.20
same,"Increased protein synthesis, rescued by S6K1i",FXS model mice [2],Both inhibitors rescued
same,"Aberrant social novelty behavior, rescued by S6K1i",FXS model mice [3],Both inhibitors rescued
same,"Aberrant y-maze reversal learning, rescued by S6K1i",FXS model mice [4],Both inhibitors rescued
same,"Aberrant spine morphology, rescued by S6K1i",FXS model mice [5],Both inhibitors rescued
